# What was measured:
# B16 melanoma 4A5 cells = assay: Melanin production inhibitory effect (theophylline-induced melanin production); type: cell-based, mouse; conditions: melanin production inhibition rate, sample at a concentration of 10 mM or less, 3 days culture, theophylline 1 mmol/L, N=4
# Method in brief: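 Mouse B16 4A5 cells cultured 24 h in D-MEM/10% FBS, then 3 days with 1 mmol/L theophylline (final) plus sample at 10 mM or less. Melanin measured by alkali solubilization (1 mol/L NaOH, 60° C, 30 min, A405) against synthetic melanin standard, normalized to BCA protein. Inhibition rate relative to normal and control groups, scored as graded ranges; N=4.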
# [1] = Stability test (residual rate by HPLC, odor, coloring); type: physicochemical; conditions: 1% aqueous solution; for Coloring / Odor: total score of 10 panelists
# Method in brief: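 A 1% aqueous solution of each test sample was brought to pH 6 with dilute potassium hydroxide aqueous solution, sealed in a 50 mL screw tube, and stored. Residual rate was calculated from HPLC peak area on a Shimadzu liquid chromatograph. Ten panelists scored odor and coloring on a 1–3 scale each, and the summed scores were classified.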
# [2] = tested on: Normal human epidermal keratinocytes; assay: Antioxidant test (ROS production after H2O2 treatment, DCFHDA probe); type: cell-based; conditions: sample at a concentration of 10 mM or less, 24 h culture, 0.2 mM H2O2 for 2 hours, ROS per unit protein, N=4
# Procedure: Normal human epidermal keratinocytes were seeded in a 96-well plate using KG2 medium to a cell density of 2.0×10^4 cells/well. After 24 hours of pre-incubation, samples adjusted to a predetermined concentration with KG2 medium were added to each well. After 24 hours of culture and removal of the medium, the wells were washed with HBSS(−) and the ROS-reactive fluorescent probe DCFHDA was allowed to incorporate for 30 minutes. The wells were washed again with HBSS(—), treated with 0.2 mM H2O2, and cultured for 2 hours. The fluorescence intensity was measured, and the amount of ROS produced per unit protein was calculated by dividing the fluorescence intensity by the amount of protein quantified by the BCA method.
# The antioxidant effect when the sample was measured at a concentration of 10 mM or less was expressed as follows. The measurement was performed with N=4. • <20%: ± • 20-40%: + • 40-70%: ++ • 70-100%: +++
# [3] = tested on: Normal human dermal fibroblasts; assay: Collagen production promoting effect (ELISA of supernatant); type: cell-based; conditions: amount of collagen produced, % with control group taken as 100%; sample at 10 mmol/L or less, 48 hours, N=3
# Method in brief: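 Fibroblasts in D-MEM with 5% FBS were pre-incubated 24 h, then exposed to samples for 48 h. Free collagen in supernatant quantified by ELISA (N=3), expressed as % of control (control = 100%) at ≤10 mmol/L, scored ± (<100%), + (100-120%), ++ (120%).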
# [4] = tested on: Normal human dermal fibroblasts (NHDF); assay: Hyaluronic acid production promoting effect (ELISA of supernatant); type: cell-based; conditions: amount of hyaluronic acid produced, % with control group taken as 100%; sample at 10 mmol/L or less, 48 hours, N=3
# Method in brief: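 NHDF pre-incubated 24 h, then exposed to samples at 10 mmol/L or less in serum-free D-MEM for 48 h. Supernatant hyaluronic acid quantified by ELISA, N=3, expressed as % of control (100%) and scored ± (<100%), + (100-120%), ++ (120-150%), +++ (150%).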
# [5] = pH 6, stored at 50° C., four weeks later
# [6] = pH 6, stored at 50° C., two weeks later
"Residual rate ([1]; pH 6, 50° C., initial)","Residual rate [1, 5]","Residual rate [1, 6]",SMILES,Melanin production inhibition effect (B16 melanoma 4A5 cells),"Coloring ([1]; pH 6, 50° C., initial)","Odor ([1]; pH 6, 50° C., initial)","Coloring [1, 5]","Odor [1, 5]","Coloring [1, 6]","Odor [1, 6]",Antioxidant Effects [2],Collagen production promoting effect [3],Hyaluronic acid production promoting effect [4]
⊚ (⊚: 90% or more),⊚ (⊚: 90% or more),⊚ (⊚: 90% or more),"CC(C)(O)COC1=C(O)C(=O)O[C@@H]1[C@@H](O)CO [Synthesis Example 2, 3-O-(2-hydroxyisobutyl) ascorbic acid]",+ (20-40%: +),◯ (◯: Total score of 10 panelists is 25 or more),◯ (◯: Total score of 10 panelists is 20-24),◯ (◯: Total score of 10 panelists is 25 or more),◯ (◯: Total score of 10 panelists is 20-24),◯ (◯: Total score of 10 panelists is 25 or more),◯ (◯: Total score of 10 panelists is 20-24),++ (40-70%: ++),+ (100-120%: +),+ (100-120%: +)
⊚ (⊚: 90% or more),⊚ (⊚: 90% or more),⊚ (⊚: 90% or more),"CC(C)(O)COC1=C(O)[C@@H]([C@@H](O)CO)OC1=O [Synthesis Example 1, 2-O-(2-hydroxyisobutyl) ascorbic acid]",++ (40-60%: ++),◯ (◯: Total score of 10 panelists is 25 or more),◯ (◯: Total score of 10 panelists is 20-24),◯ (◯: Total score of 10 panelists is 25 or more),◯ (◯: Total score of 10 panelists is 20-24),◯ (◯: Total score of 10 panelists is 25 or more),◯ (◯: Total score of 10 panelists is 20-24),++ (40-70%: ++),++ (120%: ++),+ (100-120%: +)
⊚ (⊚: 90% or more),⊚ (⊚: 90% or more),⊚ (⊚: 90% or more),"CCCCCCCCCCCCCCC(O)COC1=C(OCC(C)(C)O)C(=O)O[C@@H]1[C@@H](O)CO (some centres unmarked) [Synthesis Example 37, 2-O-(2-hydroxyisobutyl)-3-O-(2-hydroxyhexadecyl) ascorbic acid]",+ (20-40%: +),◯ (◯: Total score of 10 panelists is 25 or more),⊚ (⊚: Total score of 10 panelists is 25 or more),◯ (◯: Total score of 10 panelists is 25 or more),◯ (◯: Total score of 10 panelists is 20-24),◯ (◯: Total score of 10 panelists is 25 or more),◯ (◯: Total score of 10 panelists is 20-24),–,+ (100-120%: +),++ (120-150%: ++)
⊚ (⊚: 90% or more),⊚ (⊚: 90% or more),⊚ (⊚: 90% or more),"CCCCCCCCCCCCOCC(O)COC1=C(OCC(C)(C)O)C(C(O)CO)OC1=O (centres unmarked) [Synthesis Example 31, 2-O-(2-hydroxy-3-O-dodecyl)-3-O-(2-hydroxyisobutyl) ascorbic acid]",+ (20-40%: +),◯ (◯: Total score of 10 panelists is 25 or more),⊚ (⊚: Total score of 10 panelists is 25 or more),◯ (◯: Total score of 10 panelists is 25 or more),◯ (◯: Total score of 10 panelists is 20-24),◯ (◯: Total score of 10 panelists is 25 or more),⊚ (⊚: Total score of 10 panelists is 25 or more),–,++ (120%: ++),++ (120-150%: ++)

# The remaining lines, values behind:
SMILES,"Residual rate ([1]; pH 6, 50° C., initial)","Residual rate [1, 5]","Residual rate [1, 6]",Melanin production inhibition effect (B16 melanoma 4A5 cells),"Coloring ([1]; pH 6, 50° C., initial)","Odor ([1]; pH 6, 50° C., initial)","Coloring [1, 5]","Odor [1, 5]","Coloring [1, 6]","Odor [1, 6]",Antioxidant Effects [2],Collagen production promoting effect [3],Hyaluronic acid production promoting effect [4]
"O=C1O[C@H]([C@@H](O)CO)C(OCC(O)CO)=C1O (some centres unmarked) [3-O-glyceryl ascorbic acid, reference compound]",⊚ (⊚: 90% or more),"Δ (Δ: 60% or more, less than 80%)","◯ (◯: 80% or more, less than 90%)",+ (20-40%: +),◯ (◯: Total score of 10 panelists is 25 or more),◯ (◯: Total score of 10 panelists is 20-24),Δ (Δ: Total score of 10 panelists is 16-24),Δ (Δ: Total score of 10 panelists is 16-19),Δ (Δ: Total score of 10 panelists is 16-24),Δ (Δ: Total score of 10 panelists is 16-19),+ (20-40%: +),+ (100-120%: +),+ (100-120%: +)
"CCOC1=C(OCC(C)(C)O)[C@@H]([C@@H](O)CO)OC1=O [Synthesis Example 18, 2-O-ethyl-3-O-(2-hydroxyisobutyl) ascorbic acid]",–,–,–,+++ (60-100%: +++),–,–,–,–,–,–,++ (40-70%: ++),++ (120%: ++),++ (120-150%: ++)
"O=C1O[C@H]([C@@H](O)CO)C(O)=C1OCC(O)CO (some centres unmarked) [2-O-glyceryl ascorbic acid, reference compound]",–,–,–,+ (20-40%: +),–,–,–,–,–,–,± (<20%: ±),+ (100-120%: +),+ (100-120%: +)
"CCOC1=C(OCC(C)(C)O)C(=O)O[C@@H]1[C@@H](O)CO [Synthesis Example 3, 2-O-(2-hydroxyisobutyl)-3-O-ethylascorbic acid]",–,–,–,+++ (60-100%: +++),–,–,–,–,–,–,++ (40-70%: ++),++ (120%: ++),–

# From patent US20260001853A1, “ASCORBIC ACID DERIVATIVE OR SALT THEREOF, AND COSMETIC THEREOF” (SEIWA KASEI COMPANY, LIMITED, priority 2022, published 2026)
